One may read the pIC50 as the negative decadic logarithm of the IC50, by convention in mol/L.

Here are results for 1 molecule from ChEMBL document CHEMBL1143841, “Improved assessment of plasmodium vivax response to antimalarial drugs by a colorimetric double-site plasmodium lactate dehydrogenase antigen capture enzyme-linked immunosorbent assay” (Antimicrob Agents Chemother, 2007).

Holding throughout (type): functional, organism-based
Assay [1] has as its system Plasmodium vivax. Kind of assay: Growth inhibition of Plasmodium vivax isolate 1 assessed as parasite LDH synthesis after 48 hrs by double-site Plasmodium LDH antigen capture enzyme-linked immunosorbent assay.
For assay [2], the system named is Plasmodium vivax. As to the kind of experiment: Growth inhibition of Plasmodium vivax isolate 2 assessed as parasite LDH synthesis after 48 hrs by double-site Plasmodium LDH antigen capture enzyme-linked immunosorbent assay.
Assay [3] deals with Plasmodium vivax. Kind of assay: Growth inhibition of Plasmodium vivax isolate 3 assessed as parasite LDH synthesis after 48 hrs by double-site Plasmodium LDH antigen capture enzyme-linked immunosorbent assay.
Assay [4] concerns Plasmodium vivax. Kind of assay: Growth inhibition of Plasmodium vivax isolate 4 assessed as parasite LDH synthesis after 48 hrs by double-site Plasmodium LDH antigen capture enzyme-linked immunosorbent assay.

pIC50: −log10 of the molar value.

Regarding `CCN(CC)CCCC(C)Nc1ccnc2cc(Cl)ccc12` (centres undefined) [CHLOROQUINE], the negative-log IC50 (pIC50) with Plasmodium vivax [1] was 8.26; with Plasmodium vivax [2] it was 7.92; in the assay on Plasmodium vivax [3] it was 7.05; in the assay with Plasmodium vivax [4] it was 6.74.
